The results in this text go back to US8404691B2, “Imidazothiazole derivatives having proline ring structure” (Daiichi Sankyo Company, Limited, priority 2009, dated 2013).

Broadly, the IC50 is the point on the concentration scale where inhibition reaches its midpoint. Lower therefore signals inhibition by little substance.

Data set [1] deals with human lung cancer-derived cell line NCI-H460 having wild-type p53. Briefly: Cell growth inhibition assay (MTT). The data set is classed as cell-based. As to conditions: 72 h, NCI-H460 cells, culturing 3 days, read-out: anti-cellular effect GI50 (50% growth inhibition concentration). As for the experimental part:
A cell growth inhibition assay was conducted using human lung cancer-derived cell line NCI-H460 having wild-type p53.
NCI-H460 cells were suspended in a medium (RPMI1640 medium containing 10% fetal bovine serum) and the suspension was inoculated in an amount of 500 cells/150 μL/well to a 96-well multiwell plate. A test compound was dissolved in DMSO and this solution was diluted with medium to prepare a sample solution (DMSO concentration: 1% or lower). On the next day of inoculation, medium nonsupplemented with the test compound or the sample solution was added in an amount of 50 μL/well. The MTT assay was conducted immediately after the medium was added in an amount of 50 μL on the next day of cell inoculation, and after the sample solution or the medium was added to cells followed by culturing at 37° C. for 3 days in a 5% CO2 atmosphere. The MTT assay was conducted as shown below.
A 5 mg/mL MTT (3-(4,5-dimethylthiazol-2-yl)-2,5-diphenyltetrazolium bromide, Sigma-Aldrich Co., M-2128) solution was prepared using a phosphate buffer solution (Dulbecco's Phosphate-buffered Saline). This MTT solution was added in an amount of 20 μL/well. Then, the plate was cultured at 37° C. for 4 hours in a 5% CO2 atmosphere. The plate was centrifuged at 1200 rpm for 5 minutes and then the culture supernatant was removed by aspiration using a dispenser. DMSO was added in an amount of 150 μL/well to dissolve generated formazan. The plate was stirred using a plate mixer for uniform color development from each well. The absorbance of each well was measured under conditions of OD 540 nm and reference 660 nm using a plate reader (SpectraMax PLUS384, Molecular Devices, CA, USA).
The OD value measured on the day of adding the sample solution was defined as S. The OD value measured three days after addition of the sample solution was defined as T. The OD value measured three days after addition of the DMSO dilution was defined as C. T/C (%) was determined at each concentration according to the calculation formula shown below to prepare a dose response curve, from which 50% growth inhibition concentration (GI50 value) was calculated. T/C(%)=(T−S)/(C−S)×100

The nature of data set [2]: Metabolic stability test (microsomal metabolism). Note: tested at 1.1 µM. Particulars: human liver microsomes, 37° C., 30 minutes after addition of NADP+. The data set is classed as in vitro ADME. The method, then:
100 μL of 100 mM phosphate buffer solution (pH 7.4) containing 3 μM test compound was added to 100 μL of reaction solution containing 100 mM phosphate buffer solution (pH 7.4), 30 mM glucose 6-phosphate, 10 mM MgCl2.6H2O, 3 units/mL glucose 6-phosphate 1-dehydrogenase, and 0.3 to 1.5 mgP/mL human liver microsomes and the mixture was incubated at 37° C. for 20 minutes. Then, 70 μL of 100 mM phosphate buffer solution (pH 7.4) containing 3 mM NADP+ was added and the mixture was further incubated at 37° C. for 30 minutes to conduct a microsomal metabolism test. The compound was quantified by the internal standard method using a quadrupole mass spectrometer connected to a high performance liquid chromatography apparatus. The metabolic stability (residual percentage of compound: MS %) was determined according to the following formula: MS(human)(%)=(peak area ratio of test compound after addition of NADP+ and incubation for 30 minutes)/(peak area ratio of test compound before addition of NADP+)×100.
(peak area ratio: peak area of test compound divided by that of internal standard substance)
In general terms: Liver microsomes are a subcellular fraction often used to study metabolism.

Another data set addresses T1, Mdm2/p53 binding (Homo sapiens, UniProt Q00987, L33E).
T1 construct: Mdm2 amino acids at positions 25 to 108
Briefly: Mdm2/p53 binding assay (HTRF, His-p53 and GST-Mdm2). As to conditions: His-p53 (aa 1-132) and GST-Mdm2 (aa 25-108, L33E), 6.25 nM each, 25° C. for 1 hour. As for the experimental part: Next, a test compound was diluted with DMSO to produce protein buffer solution containing 10% dilution, and this buffer solution was added in an amount of 4 μL/well to the plate.
These dilutions were added in an amount of 8 μL/well (total reaction solution volume: 20 μl/well). Then, the plate was left at 25° C. for 1 hour.
The R value calculated from the well supplemented with His-p53, GST-Mdm2, the test compound, and each antibody was defined as R (sample). The R value calculated from the well supplemented with His-p53, GST-Mdm2, and each antibody but without the test compound was defined as R (control). The R value calculated from the well supplemented with GST-Mdm2, the test compound, and each antibody but without His-p53 was defined as R (background). T/C was calculated from the formula shown below. An IC50 value for Mdm2/p53 binding was calculated by sigmoid fitting. T/C=(R(sample)−R(background))/(R(control)−R(background))
(In general: Time-resolved FRET reads energy transfer from a long-lived donor to a nearby acceptor.)

T1 sequence (Q00987 25-108 L33E): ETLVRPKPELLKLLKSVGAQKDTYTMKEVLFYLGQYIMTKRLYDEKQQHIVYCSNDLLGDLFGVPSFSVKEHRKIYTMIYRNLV

`CC(C)C1=C(C(=O)N2C[C@H](F)C[C@H]2C(=O)N2CCN(C)C3(CC3)C2)SC2=N[C@@](C)(c3ccc(Cl)nc3)[C@@H](c3ccc(Cl)c(F)c3)N21` [Example 15, 7-[(4R)-1-{[(5R,6S)-5-(4-chloro-3-fluorophenyl)-6-(6-chloropyridin-3-yl)-3-isopropyl-6-methyl-5,6-dihydroimidazo[2,1-b][1,3]thiazol-2-yl]carbonyl}-4-fluoro-L-prolyl]-4-methyl-4,7-diazaspiro[2.5]octane]: in data set [1], the GI50 was less than 400 nM. The “MS (human) % (metabolic stability, residual percentage of compound)” value in data set [2] is 44%. Moreover, at Mdm2/p53 binding, the IC50 was determined as 2.7 nM.
In the case of `CC(C)C1=C(C(=O)N2C[C@H](F)C[C@H]2C(=O)N2CC3(CC3)N(C)C[C@@H]2C)SC2=N[C@@](C)(c3ccc(Cl)nc3)[C@@H](c3ccc(Cl)c(F)c3)N21` [Example 16], in data set [1], the GI50 was less than 400 nM. The “MS (human) % (metabolic stability, residual percentage of compound)” value in data set [2] was determined as 56%. Also, the IC50 at Mdm2/p53 binding amounted to 2.3 nM.
In the same order, the values of `CC(C)C1=C(C(=O)N2C[C@H](F)C[C@H]2C(=O)N2CC3(CC3)NC[C@@H]2C)SC2=N[C@@](C)(c3ccc(Cl)nc3)[C@@H](c3ccc(Cl)cc3)N21` [Example 27] are less than 400 nM, 91% and 1.9 nM.
Taken in the same sequence, the figures for `CC(C)C1=C(C(=O)N2C[C@H](F)C[C@H]2C(=O)N2CC3(CC3)NC[C@H]2C(=O)O)SC2=N[C@@](C)(c3ccc(Cl)nc3)[C@@H](c3ccc(Cl)c(F)c3)N21` [Example 14] were 400 to 2500 nM, 100% and 16 nM.
As to `CC(C)C1=C(C(=O)N2C[C@H](F)C[C@H]2C(=O)N2CC3(CC3)NC[C@H]2C)SC2=N[C@@](C)(c3ccc(Cl)cc3)[C@@H](c3ccc(Cl)cc3)N21` [Example 20], the GI50 in data set [1] is less than 400 nM. Moreover, in data set [2], the “MS (human) % (metabolic stability, residual percentage of compound)” value came out at 36%. In addition, the IC50 at Mdm2/p53 binding came out at 1.4 nM.
As to `CC[C@@H]1CN(C(=O)C(F)(F)F)C2(CC2)CN1C(=O)[C@@H]1C[C@@H](F)CN1C(=O)C1=C(C(C)C)N2C(=N[C@@](C)(c3ccc(Cl)nc3)[C@H]2c2ccc(Cl)c(F)c2)S1` [Example 5, (6R)-7-[(4R)-1-{[(5R,6S)-5-(4-chloro-3-fluorophenyl)-6-(6-chloropyridin-3-yl)-3-isopropyl-6-methyl-5,6-dihydroimidazo[2,1-b][1,3]thiazol-2-yl]carbonyl}-4-fluoro-L-prolyl]-6-ethyl-4-(trifluoroacetyl)-4,7-diazaspiro[2.5]octane], in data set [1], the GI50 is less than 400 nM. The IC50 on Mdm2/p53 binding turned out to be 5.3 nM.
As to `CC(C)C1=C(C(=O)N2C[C@H](F)C[C@H]2C(=O)N2CCNC3(CC3)C2)SC2=N[C@@](C)(c3ccc(Cl)nc3)[C@@H](c3ccc(Cl)c(F)c3)N21` [Example 1, 7-[(4R)-1-{[(5R,6S)-5-(4-chloro-3-fluorophenyl)-6-(6-chloropyridin-3-yl)-3-isopropyl-6-methyl-5,6-dihydroimidazo[2,1-b][1,3]thiazol-2-yl]carbonyl}-4-fluoro-L-prolyl]-4,7-diazaspiro[2.5]octane], the GI50 in data set [1] is less than 400 nM. The “MS (human) % (metabolic stability, residual percentage of compound)” value in data set [2] is given as 77%. At Mdm2/p53 binding, this compound displayed an IC50 of 2.8 nM.
Regarding `CC[C@@H]1CNC2(CC2)CN1C(=O)[C@@H]1C[C@@H](F)CN1C(=O)C1=C(C(C)C)N2C(=N[C@@](C)(c3ccc(Cl)nc3)[C@H]2c2ccc(Cl)cc2)S1` [Example 30], the GI50 in data set [1] was 400 to 2500 nM. For the same compound, in data set [2], the “MS (human) % (metabolic stability, residual percentage of compound)” value came out at 62%. The compound also gave an IC50 on Mdm2/p53 binding of 3.1 nM.
In the same order, the values of `CC(C)C1=C(C(=O)N2C[C@H](F)C[C@H]2C(=O)N2CC3(CC3)NC[C@H]2CO)SC2=N[C@@](C)(c3ccc(Cl)nc3)[C@@H](c3ccc(Cl)c(F)c3)N21` [Example 12, {(6S)-7-[(4R)-1-{[(5R,6S)-5-(4-chloro-3-fluorophenyl)-6-(6-chloropyridin-3-yl)-3-isopropyl-6-methyl-5,6-dihydroimidazo[2,1-b][1,3]thiazol-2-yl]carbonyl}-4-fluoro-L-prolyl]-4,7-diazaspiro[2.5]oct-6-yl}methanol] are 400 to 2500 nM, 69% and 5 nM.
As for `CC(C)C1=C(C(=O)N2CC(F)(F)C[C@H]2C(=O)N2CC3(CC3)NC[C@@H]2C)SC2=N[C@@](C)(c3ccc(Cl)nc3)[C@@H](c3ccc(Cl)c(F)c3)N21` [Example 9, (6S)-7-(1-{[(5R,6S)-5-(4-chloro-3-fluorophenyl)-6-(6-chloropyridin-3-yl)-3-isopropyl-6-methyl-5,6-dihydroimidazo[2,1-b][1,3]thiazol-2-yl]carbonyl}-4,4-difluoro-L-prolyl)-6-methyl-4,7-diazaspiro[2.5]octane], in data set [1], the GI50 is less than 400 nM. The “MS (human) % (metabolic stability, residual percentage of compound)” value in data set [2] is listed as 80%. This compound came in with an IC50 on Mdm2/p53 binding of 4.1 nM.
Taken in the same sequence, the figures for `CC[C@H]1CNC2(CC2)CN1C(=O)[C@@H]1C[C@@H](F)CN1C(=O)C1=C(C(C)C)N2C(=N[C@@](C)(c3ccc(Cl)cc3)[C@H]2c2ccc(Cl)cc2)S1` [Example 21] were less than 400 nM, 96% and 2.2 nM.
Taken in the same sequence, the figures for `CC(C)C1=C(C(=O)N2C[C@H](F)C[C@H]2C(=O)N2CC3(CC3)NC[C@@H]2C(=O)O)SC2=N[C@@](C)(c3ccc(Cl)nc3)[C@@H](c3ccc(Cl)c(F)c3)N21.Cl.Cl` [Example 13, (6R)-7-[(4R)-1-{[(5R,6S)-5-(4-chloro-3-fluorophenyl)-6-(6-chloropyridin-3-yl)-3-isopropyl-6-methyl-5,6-dihydroimidazo[2,1-b][1,3]thiazol-2-yl]carbonyl}-4-fluoro-L-prolyl]-4,7-diazaspiro[2.5]octane-6-carboxylic acid dihydrochloride] were 400 to 2500 nM, 100% and 5.4 nM.
In the same order, the values of `CC(C)C1=C(C(=O)N2C[C@H](F)C[C@H]2C(=O)N2CC3(CC3)N(C)C[C@H]2C)SC2=N[C@@](C)(c3ccc(Cl)nc3)[C@@H](c3ccc(Cl)c(F)c3)N21` [Example 17] are 400 to 2500 nM, 44% and 3.3 nM.
Consider `CC(C)C1=C(C(=O)N2C[C@H](F)C[C@H]2C(=O)N2CC3(CC3)NC[C@@H]2C)SC2=N[C@@](C)(c3ccc(Cl)cc3)[C@@H](c3ccc(Cl)c(F)c3)N21` [Example 24], for which the GI50 in data set [1] is less than 400 nM. The “MS (human) % (metabolic stability, residual percentage of compound)” value in data set [2] was found to be 89%.
Consider `CC(C)C1=C(C(=O)N2C[C@H](F)C[C@H]2C(=O)N2CC3(CC3)NC[C@H]2C)SC2=N[C@@](C)(c3ccc(Cl)cc3)[C@@H](c3ccc(Cl)c(F)c3)N21` [Example 25], for which the GI50 in data set [1] is less than 400 nM. Also, the “MS (human) % (metabolic stability, residual percentage of compound)” value in data set [2] stood at 47%.
